Measured values as given in US4789542A, “Radioiodinated glucose analogues for use as imaging agents” (The United States of America as represented by the United …, priority 1986, dated 1988).
Like-named read-outs stand apart in the source and are kept apart here.

Experiment: Distribution of radioactivity in tissues of female rats after intravenous administration
Assay type: in vivo
Conditions: rat; for Brain/Blood ratio / Distribution of radioactivity, Brain / Heart/Blood ratio / tissue uptake at 5 min / tissue uptake at 0.25 h / tissue uptake at 0.5 h / tissue uptake at 1 h: mean; for tissue uptake at 5 min / tissue uptake at 0.25 h / tissue uptake at 0.5 h / tissue uptake at 1 h: iv
Procedure: A test radiopharmaceutical methyl-2-deoxy-2-(E)-[^125 I]-iodovinyl-2,4,6-0-triacetyl-β-D-altropyranoside 6 was prepared to establish that a deoxy substituted iodovinyl carbohydrate could be delivered to the brain in significant levels with prolonged retention. One novel aspect of the invention was the scission of an anhydro sugar with the Grignard reagent. This technique was chosen because a variety of 2-deoxy iodovinyl carbohydrates could be prepared depending on the position of the anhydro group within the pyranose ring. The process of the synthesis is shown in the drawing.
The distribution of radioactivity in tissues of female rats at 5 minutes, 15 minutes, 30 minutes and 60 minutes after intravenous administration of the iodinated compound is shown in the following table. The level of accumulation of radioactivity in the brain after injection of this agent was a significant 1.65 percent dose/g at 5 minutes but the blood levels were also high resulting in blood ratios of 1.6/1 at 5 minutes.

CO[C@@H]1O[C@H](COC(C)=O)[C@@H](OC(C)=O)[C@@H](OC(C)=O)[C@@H]1/C=C/[125I] [methyl-2-deoxy-2-(E)-[^125 I]-iodovinyl-2,4,6-0-triacetyl-β-D-altropyranoside]
Brain/Blood ratio (5 min): 1.5666 | Distribution of radioactivity, Brain (5 min): 1.6525 percent dose/g | Heart/Blood ratio (5 min): 1.0776 | Brain/Blood ratio (15 min): 1.2775 | Heart/Blood ratio (15 min): 1.1490 | Brain/Blood ratio (30 min): 1.1035 | Heart/Blood ratio (30 min): 1.0809 | Brain/Blood ratio (60 min (1 hr)): 1.1087 | Heart/Blood ratio (60 min (1 hr)): 1.0408 | Distribution of radioactivity, Brain (60 min (1 hr), 60 min): 0.7237 percent dose/g | Brain retention at 60 minutes compared with the peak uptake at 5 minutes (60 min vs 5 min): 50% | tissue uptake at 5 min (blood, 5 min, read-out: Distribution of radioactivity, Blood): 1.05 %ID/g | tissue uptake at 0.25 h (blood, 15 min, read-out: Distribution of radioactivity, Blood): 0.933 %ID/g | tissue uptake at 0.5 h (blood, 30 min, read-out: Distribution of radioactivity, Blood): 0.0037 %ID/g | tissue uptake at 1 h (blood, 60 min (1 hr), read-out: Distribution of radioactivity, Blood): 0.653 %ID/g | tissue uptake at 5 min (brain, 5 min, read-out: Distribution of radioactivity, Brain): 1.65 %ID/g | tissue uptake at 0.25 h (brain, 15 min, read-out: Distribution of radioactivity, Brain): 1.19 %ID/g | tissue uptake at 0.5 h (brain, 30 min, read-out: Distribution of radioactivity, Brain): 0.891 %ID/g | tissue uptake at 1 h (brain, 60 min (1 hr), read-out: Distribution of radioactivity, Brain): 0.72 %ID/g | tissue uptake at 5 min (kidney, 5 min, read-out: Distribution of radioactivity, Kidney): 1.55 %ID/g | tissue uptake at 0.25 h (kidney, 15 min, read-out: Distribution of radioactivity, Kidney): 1.57 %ID/g | tissue uptake at 0.5 h (kidney, 30 min, read-out: Distribution of radioactivity, Kidney): 1.7 %ID/g | tissue uptake at 1 h (kidney, 60 min (1 hr), read-out: Distribution of radioactivity, Kidney): 1.57 %ID/g | tissue uptake at 5 min (liver, 5 min, read-out: Distribution of radioactivity, Liver): 1.39 %ID/g | tissue uptake at 0.25 h (liver, 15 min, read-out: Distribution of radioactivity, Liver): 1.37 %ID/g | tissue uptake at 0.5 h (liver, 30 min, read-out: Distribution of radioactivity, Liver): 1.23 %ID/g | tissue uptake at 1 h (liver, 60 min (1 hr), read-out: Distribution of radioactivity, Liver): 1.05 %ID/g | tissue uptake at 5 min (lung, 5 min, read-out: Distribution of radioactivity, Lung): 1.19 %ID/g | tissue uptake at 0.25 h (lung, 15 min, read-out: Distribution of radioactivity, Lung): 1.03 %ID/g | tissue uptake at 0.5 h (lung, 30 min, read-out: Distribution of radioactivity, Lung): 0.833 %ID/g | tissue uptake at 1 h (lung, 60 min (1 hr), read-out: Distribution of radioactivity, Lung): 0.663 %ID/g | tissue uptake at 5 min (thyroid, 5 min, read-out: Distribution of radioactivity, Thyroid): 20.6 %ID/g | tissue uptake at 0.25 h (thyroid, 15 min, read-out: Distribution of radioactivity, Thyroid): 18.9 %ID/g | tissue uptake at 0.5 h (thyroid, 30 min, read-out: Distribution of radioactivity, Thyroid): 25.7 %ID/g | tissue uptake at 1 h (thyroid, 60 min (1 hr), read-out: Distribution of radioactivity, Thyroid): 33.5 %ID/g | Retention in the brain (up to 60 min): prolonged retention in the brain | Stability to in vivo deiodination (from low thyroid accumulation) (up to 60 min): demonstrated the stability of this agent to in vivo deiodination
